Measurements as given in ChEMBL document CHEMBL1201862, “PubChem BioAssay data set” (2004).
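Tested at 5 concentrations; 48 h exposure; 96-well plates; endpoints linearly interpolated, else capped at highest concentration. The concentration for 50% growth inhibition is given as GI50.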 The source made the active and inactive calls. Cut-off read from the data, not from the text of the source: active = GI50 up to about 1.1 µM and inactive = higher.

Key:
Experiment in all cases: inhibition of tumour cell growth, NCI panel, 48 h
SNB-75 = tested on: SNB-75
A549 = tested on: A549
A498 = tested on: A498
SN12C = tested on: SN12C
OVCAR-3 = tested on: OVCAR-3
NCI-H460 = tested on: NCI-H460
OVCAR-4 = tested on: OVCAR-4
K562 = tested on: K562
HCT-116 = tested on: HCT-116
U-251 = tested on: U-251
786-0 = tested on: 786-0
IGROV-1 = tested on: IGROV-1
HCC 2998 = tested on: HCC 2998
HL-60 = tested on: HL-60
M14 = tested on: M14
MOLT-4 = tested on: MOLT-4
EKVX = tested on: EKVX
RXF 393 = tested on: RXF 393

Measured: GI50

CC1(C)C=C(N2CCN(C3=CC(C)(C)NC(C)(C)C3)CC2)CC(C)(C)N1
inactive: SNB-75 > 100 µM | A549 > 100 µM | A498 > 100 µM | SN12C > 100 µM | OVCAR-3 > 100 µM | NCI-H460 > 100 µM | OVCAR-4 > 100 µM | K562 > 100 µM | HCT-116 > 100 µM | U-251 > 100 µM | 786-0 > 100 µM | IGROV-1 > 100 µM | HCC 2998 > 100 µM | HL-60 > 100 µM | M14 > 100 µM | MOLT-4 > 100 µM | EKVX > 100 µM

Cc1ccc(N2C(=O)/C(=C3\Sc4c(nc(C)n(C)c4=O)N3c3ccccc3)SC2=S)cc1
inactive: SNB-75 28.6 µM | A549 49.2 µM | RXF 393 18.7 µM | A498 30.1 µM | SN12C 43.4 µM | NCI-H460 19.1 µM | OVCAR-4 76.9 µM | K562 > 100 µM | HCT-116 64.7 µM | U-251 42.7 µM | 786-0 36.9 µM | IGROV-1 48 µM | HCC 2998 > 100 µM | HL-60 > 100 µM | M14 > 100 µM | MOLT-4 > 100 µM | EKVX > 100 µM

[O-][Cl+3]([O-])([O-])O.c1ccc(/N=c2\nc(N3CCOCC3)ss2)cc1
inactive: SNB-75 19.9 µM | A549 33.4 µM | RXF 393 17.3 µM | A498 27.7 µM | SN12C 15.1 µM | NCI-H460 17.6 µM | OVCAR-4 15.7 µM | K562 16.5 µM | HCT-116 14.6 µM | U-251 15.2 µM | 786-0 16.4 µM | IGROV-1 20.1 µM | HCC 2998 21.1 µM | HL-60 14.6 µM | M14 14.7 µM | MOLT-4 12.3 µM | EKVX 21 µM

COc1ccc(C2=C(Cl)c3cc(OC)c(OC)cc3C2)cc1OC
inactive: SNB-75 > 100 µM | A549 > 100 µM | RXF 393 24.4 µM | A498 34.9 µM | SN12C > 100 µM | OVCAR-4 > 100 µM | K562 > 100 µM | HCT-116 > 100 µM | U-251 > 100 µM | 786-0 > 100 µM | IGROV-1 > 100 µM | HCC 2998 > 100 µM | HL-60 > 100 µM | M14 > 100 µM | MOLT-4 > 100 µM | EKVX > 100 µM

COC(=O)C1=C(c2cc(OC)c(OC)c(OC)c2)OC(c2cc(OC)c(OC)c(OC)c2)C1 (stereo not drawn)
inactive: SNB-75 23.7 µM | A549 36.5 µM | RXF 393 33.9 µM | A498 24.1 µM | SN12C 19.2 µM | OVCAR-3 22.1 µM | NCI-H460 28.4 µM | OVCAR-4 12 µM | K562 28.8 µM | HCT-116 17 µM | U-251 20.5 µM | 786-0 24.8 µM | IGROV-1 20.1 µM | HCC 2998 20.1 µM | M14 20.5 µM | MOLT-4 22.9 µM

CC(=O)N1CCN(c2ccc(OCC3COC(Cn4ccnc4)(c4ccc(Cl)cc4Cl)O3)cc2)CC1 (stereo not drawn) [KETOCONAZOLE]
inactive: A549 27.3 µM | RXF 393 22.2 µM | A498 37 µM | SN12C 52.4 µM | OVCAR-3 28.1 µM | NCI-H460 32.5 µM | OVCAR-4 39.1 µM | K562 28.7 µM | HCT-116 22.3 µM | 786-0 36 µM | IGROV-1 38.7 µM | HCC 2998 28.4 µM | HL-60 20.1 µM | M14 22.4 µM | MOLT-4 22.5 µM
